We go through two molecules from patent publication EP4806912A1, “DUAL AGONIST COMPOUND” (Chengdu Aoda Biotechnology Co., Ltd, priority 2023, dated 2025).

The target of one data set is T1, GLP-1R (Homo sapiens, UniProt P43220).
T1 construct: expressed in transfected cells; host or cells: CHO-K1
As to the kind of experiment: GLP-1 activity test (cAMP, chemiluminescence, CHO-K1 cell line stably expressing GLP-1R). Type of data set: cell-based. Conditions: relative luminescence units, read-out: GLP-1 activity [EC50(pmol)]. As for the experimental part:
(§1) Upon stimulation by a specific agonist, GLP-1R activates the intracellular adenylate cyclase signaling pathway, resulting in an increase in cAMP levels and ultimately leading to insulin production and secretion. A cell line stably transfected with GLP-1R was stimulated with test compounds, thereby rapidly increasing intracellular cAMP levels. The relative luminescence units (RLU) of cells stimulated at various concentrations were measured by a chemiluminescence method, and the EC50 value of the agonist was calculated accordingly. This activity test method is currently a commonly used method for evaluating GLP-1 receptor agonist activity both domestically and internationally.
A CHO-K1 cell line stably expressing GLP-1R was used. The stable cells were stimulated with agonists at different concentrations, and the relative luminescence units after stimulation at each concentration were measured to calculate the EC50 value of the agonist.

Another data set has as its target T2, GCG-R (Homo sapiens, UniProt P47871).
T2 construct: expressed in transfected cells; host or cells: CHO-K1
As to the kind of experiment: GCG activity test (cAMP, chemiluminescence, CHO-K1 cell line stably expressing GCG-R). The format is cell-based. Conditions: relative luminescence units, read-out: GCG activity [EC50(nmol)]. As for the experimental part:
as §1, with “agonist, GCG-R” for “agonist, GLP-1R”, “with GCG-R” for “with GLP-1R”, “activity assay” for “activity test”, “evaluating GCG” for “evaluating GLP-1”
A CHO-K1 cell line stably expressing GCG-R was used. The stable cells were stimulated with agonists at different concentrations, and the relative luminescence units after stimulation at each concentration were measured to calculate the EC50 value of the agonist.

Data set [1] in a line: Preliminary pharmacokinetic evaluation in cynomolgus monkeys (plasma, LC-MS). Type of data set: in vivo. The settings on record: for half-life: cynomolgus monkey, male cynomolgus monkeys, subcutaneously (SC), 0.2 mg/kg, plasma; for half-lives: cynomolgus monkeys, administered subcutaneously. As to the method: Among the above compounds, the principle of modification for long-acting was essentially the same.
The test animals were male cynomolgus monkeys. Two animals were used for each compound. The compounds were administered subcutaneously at a dose of 0.2 mg/kg. Blood samples were collected via intravenous sampling prior to administration (0 h) and at 1 h, 2 h, 3 h, 4 h, 8 h, 12 h, 18 h, 24 h, 48 h, 96 h, 144 h, and 168 h after administration. Plasma samples were obtained by centrifugation. The plasma concentrations of the compounds were respectively determined by liquid chromatography - mass spectrometry (LC-MS).

T2 sequence (P47871 26-477, species assumed): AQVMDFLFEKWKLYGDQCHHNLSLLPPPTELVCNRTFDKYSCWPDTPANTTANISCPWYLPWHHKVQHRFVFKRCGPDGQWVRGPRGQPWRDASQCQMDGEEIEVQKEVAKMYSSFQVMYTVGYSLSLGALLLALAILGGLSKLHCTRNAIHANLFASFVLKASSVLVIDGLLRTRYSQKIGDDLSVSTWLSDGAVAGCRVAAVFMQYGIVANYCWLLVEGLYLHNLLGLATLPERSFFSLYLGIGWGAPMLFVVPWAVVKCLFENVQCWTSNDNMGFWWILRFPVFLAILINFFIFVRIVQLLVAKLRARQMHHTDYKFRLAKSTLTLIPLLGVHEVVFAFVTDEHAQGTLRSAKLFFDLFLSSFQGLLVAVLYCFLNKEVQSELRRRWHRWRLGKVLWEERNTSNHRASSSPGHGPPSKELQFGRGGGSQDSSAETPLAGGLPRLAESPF
T1 sequence (P43220 24-463, species assumed): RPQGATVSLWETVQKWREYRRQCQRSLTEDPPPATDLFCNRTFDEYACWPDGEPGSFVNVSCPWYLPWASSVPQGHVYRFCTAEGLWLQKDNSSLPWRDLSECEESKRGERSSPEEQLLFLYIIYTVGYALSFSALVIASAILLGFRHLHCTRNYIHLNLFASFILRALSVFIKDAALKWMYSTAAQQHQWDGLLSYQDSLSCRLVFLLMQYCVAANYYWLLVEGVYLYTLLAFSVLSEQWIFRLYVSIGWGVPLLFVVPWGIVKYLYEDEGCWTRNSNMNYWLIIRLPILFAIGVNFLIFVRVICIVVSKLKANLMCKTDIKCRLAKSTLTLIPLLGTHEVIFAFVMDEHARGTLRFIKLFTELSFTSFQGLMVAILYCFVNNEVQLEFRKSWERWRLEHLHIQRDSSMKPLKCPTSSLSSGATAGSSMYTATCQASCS

Broadly, the EC50 is the concentration needed to bring the measured effect to its halfway point. In general, half-life refers to how long it takes for the measured level to halve. Lower therefore signals fast loss. Regarding `CC(C)C[C@H](NC(=O)[C@H](CC(C)C)NC(=O)[C@H](Cc1c[nH]c2ccccc12)NC(=O)[C@H](CCC(=O)O)NC(=O)[C@@H](NC(=O)[C@H](Cc1ccccc1)NC(=O)[C@H](CCC(=O)O)NC(=O)[C@H](CCCCNC(=O)COCCOCCOCCOCCOCCNC(=O)CCC[C@H](NC(=O)CCCCCCCCCCCCCCCCCCC(=O)O)C(=O)O)NC(=O)[C@H](C)NC(=O)[C@H](CCCCN)NC(=O)[C@H](CCCCN)NC(=O)[C@H](CCC(=O)O)NC(=O)[C@H](CC(=O)O)NC(=O)[C@H](CC(C)C)NC(=O)[C@H](Cc1ccc(O)cc1)NC(=O)[C@H](CCCCN)NC(=O)[C@H](CO)NC(=O)[C@H](Cc1ccc(O)cc1)NC(=O)[C@H](CC(=O)O)NC(=O)[C@H](CO)NC(=O)[C@@H](NC(=O)C(C)(Cc1ccccc1)NC(=O)[C@@H](NC(=O)CNC(=O)[C@H](CCC(N)=O)NC(=O)C(C)(C)NC(=O)[C@@H](N)Cc1c[nH]cn1)[C@@H](C)O)[C@@H](C)O)C(C)C)C(=O)N[C@@H](CCC(=O)O)C(=O)NCCCCC(=O)N1CCC[C@H]1C(=O)N[C@@H](CO)C(=O)N[C@@H](CO)C(=O)NCC(=O)N[C@@H](C)C(=O)N1CCC[C@H]1C(=O)N1CCC[C@H]1C(=O)N1CCC[C@H]1C(=O)N[C@@H](CO)C(N)=O` (some centres unmarked) [Compound 6], the EC50 on GLP-1R is 0.0809 nM. Besides, the EC50 on GCG-R stood at 2.1 nM. Moreover, in data set [1], the half-life was 125 h and the half-lives entry was “greater than 100 hours”.
For `CC(C)C[C@H](NC(=O)[C@H](CC(C)C)NC(=O)[C@H](Cc1c[nH]c2ccccc12)NC(=O)[C@H](CCC(=O)O)NC(=O)[C@@H](NC(=O)[C@H](Cc1ccccc1)NC(=O)[C@H](CCC(=O)O)NC(=O)[C@H](CCCCNC(=O)COCCOCCOCCOCCOCCNC(=O)CCC[C@H](NC(=O)CCCCCCCCCCCCCCCCCCC(=O)O)C(=O)O)NC(=O)[C@H](C)NC(=O)[C@H](CCCCN)NC(=O)[C@H](CCCCN)NC(=O)[C@H](CCC(=O)O)NC(=O)[C@H](CC(=O)O)NC(=O)[C@H](CC(C)C)NC(=O)[C@H](Cc1ccc(O)cc1)NC(=O)[C@H](CCCCN)NC(=O)[C@H](CO)NC(=O)[C@H](Cc1ccc(O)cc1)NC(=O)[C@H](CC(=O)O)NC(=O)[C@H](CO)NC(=O)[C@@H](NC(=O)C(C)(Cc1ccccc1F)NC(=O)[C@@H](NC(=O)CNC(=O)[C@H](CCC(N)=O)NC(=O)C(C)(C)NC(=O)[C@@H](N)Cc1c[nH]cn1)[C@@H](C)O)[C@@H](C)O)C(C)C)C(=O)N[C@@H](CCC(=O)O)C(=O)NCCCCC(=O)N1CCC[C@H]1C(=O)N[C@@H](CO)C(=O)N[C@@H](CO)C(=O)NCC(=O)N[C@@H](C)C(=O)N1CCC[C@H]1C(=O)N1CCC[C@H]1C(=O)N1CCC[C@H]1C(=O)N[C@@H](CO)C(N)=O` (some centres unmarked) [Compound 10], the figures for the EC50 on GLP-1R and at GCG-R were 0.0755 nM and 1.2 nM, respectively. Besides, the half-life in data set [1] was 136 h. The half-lives result in data set [1] is “greater than 100 hours”.
